Assay results published in paper PMC8151276, “An Integrated Approach toward NanoBRET Tracers for Analysis of GPCR Ligand Engagement” (Molecules, 2021).
Each block holds one molecule with its values, some of them ahead of it.

Tests used:
Type in all cases: binding
CCR7 = biological target: T1, CCR7 (Homo sapiens, UniProt P32248); experiment: NanoBRET screen HiBiT-CCR7 in HEK293
T1 construct: purchased Promega (in-house HiBiT-GPCR construct library, NanoBRET)
T1 sequence (P32248 25-378): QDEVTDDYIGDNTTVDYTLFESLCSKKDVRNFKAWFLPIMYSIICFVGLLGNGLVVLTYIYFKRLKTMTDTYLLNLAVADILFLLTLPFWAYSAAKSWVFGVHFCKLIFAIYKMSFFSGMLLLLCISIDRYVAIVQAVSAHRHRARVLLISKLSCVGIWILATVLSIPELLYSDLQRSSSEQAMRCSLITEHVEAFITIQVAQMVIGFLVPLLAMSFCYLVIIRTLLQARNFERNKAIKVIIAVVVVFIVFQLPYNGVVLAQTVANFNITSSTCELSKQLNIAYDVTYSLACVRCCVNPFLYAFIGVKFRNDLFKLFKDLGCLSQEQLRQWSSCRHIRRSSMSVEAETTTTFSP
Procedure: (§1) Each tracer candidate was screened across the entire library of HiBiT-GPCR constructs using NanoBRET as the detection modality. As depicted in Figure 4A, the specificity of interactions was evaluated through decrease in BRET due to competitive displacement of a bound tracer by excess parental compound. Each tracer was analyzed for binding to each HiBiT-GPCR fusion in the absence and in the presence of competing parental compound. Briefly, HEK293 cells were transfected with HiBiT-GPCR constructs diluted into promoterless DNA to reduce expression and maximize translocation to the cell surface. Each tracer candidate was then screened at concentrations of 1 μM and 0.1 μM across cells expressing these fusions. Cells were treated for 1.5 h with tracer either alone or in the presence of 20 μM competing parental compound (i.e., control). BRET was measured upon addition of purified LgBiT and subsequent complementation with HiBiT genetically fused to a GPCR. The specificity of interactions was assessed through a decrease in BRET signal due to competitive displacement of the bound tracer. To further gauge the robustness of these interactions, the fold response over the control (i.e., BRETtracer/BRETcontrol) was calculated. We chose a 1.5-fold response, which translates to ≥7-fold signal over noise as the minimal threshold required to score an interaction as positive. […]. Below we highlight the screening results obtained for our exemplary fluorescent tracers based on Clozapine, Amitriptyline and AZD1283.
(§2) HiBiT-GPCR DNA constructs were diluted in 10 mM Tris pH 8 to a final concentration of 0.01 μg/μL, arrayed in 96-well plates and stored at −20 °C. For transfection, HEK293 cells were suspended in Opti-MEM (without phenol red) supplemented with 2% fetal bovine serum (Seradigm) and 100 units/mL penicillin–streptomycin (Gibco) at a final concentration of 220,000 cells/mL and dispensed into white 96-well plates at 90 μL/well. Subsequent transfections and screens were carried using an Agilent Bravo Automated Liquid Handling Platform. First, the 96-well HiBiT DNA arrays were diluted 25-fold in Opti-MEM (without serum or phenol red) to a final concentration of 0.0004 μg/μL and 20 μL of the diluted DNAs were transferred into new 96-well plates. Next, promoterless carrier DNA (1 μg/μL) was diluted 25-fold (0.04 μg/μL) and then dispensed into the diluted arrays at 20 μL/well. Following brief mixing, Viafect transfection reagent (Promega) diluted 16-fold into Opti-MEM was dispensed into the plates at 40 μL/well. After mixing by pipetting, plates were incubated for 10 min on the pipetting station deck. The DNA-transfection reagent complexes were then added to plates containing cells. To facilitate the screen, 10 μL of DNA-transfection reagent complexes were added in duplicates to the top 4 and bottom 4 rows, resulting in two identical 48-well arrays per plate. Plates with transfected cells were incubated for 18–20 h at 37 °C/5% CO2. A screen of each tracer across the entire library using two different concentrations requires duplicate plates of transfected cells. Depending on the number of tracers being screened, transfections can be scaled up using the same ratios. The next day, for each tracer, four 20× screening solutions in tracer dilution buffer (Promega) were prepared: two duplicates at final concentration of 20 μM and two duplicates at a final concentration of 2 μM. A competing unmodified compound was added to one of each duplicate at a final concentration of 400 μM. The four resulting solutions were diluted 4-fold in Opti-MEM without serum or phenol red to generate 5× solutions (5 µM and 0.5 µM tracer +/− 100 μM competing compound). To screen the library, a BioTek MultiFlo FX liquid dispenser was used to dispense 22.5 µL of tracer solution to the top 4 rows and 22.5 µL tracer + competing compound solution to the 4 bottom rows. Plates were briefly mixed on an orbital shaker and incubated for 1.5 h at room temperature. […]

GRPR = biological target: T2, GRPR (Homo sapiens, UniProt P30550); experiment: NanoBRET screen HiBiT-GRPR in HEK293
T2 construct: purchased Promega (in-house HiBiT-GPCR construct library, NanoBRET)
Procedure: as §1, §2

SSTR5 = biological target: T3, SSTR5 (Homo sapiens, UniProt P35346); experiment: NanoBRET screen HiBiT-SSTR5 in HEK293
T3 construct: purchased Promega (in-house HiBiT-GPCR construct library, NanoBRET)
Procedure: as §1, §2

[1] = tracer at 0.1μM, listed as amitriptyline-b-2-NB590
[2] = tracer at 1μM, listed as amitriptyline-b-2-NB590

T3 sequence (P35346 whole entry): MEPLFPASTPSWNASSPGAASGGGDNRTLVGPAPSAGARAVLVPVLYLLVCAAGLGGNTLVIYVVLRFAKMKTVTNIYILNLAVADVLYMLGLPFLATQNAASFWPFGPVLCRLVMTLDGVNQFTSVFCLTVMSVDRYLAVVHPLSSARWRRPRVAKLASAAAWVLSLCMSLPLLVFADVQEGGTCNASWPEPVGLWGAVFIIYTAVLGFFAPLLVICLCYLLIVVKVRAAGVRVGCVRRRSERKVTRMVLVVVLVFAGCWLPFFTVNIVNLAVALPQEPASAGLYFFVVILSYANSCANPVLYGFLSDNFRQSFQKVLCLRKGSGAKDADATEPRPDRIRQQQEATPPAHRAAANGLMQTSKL
T2 sequence (P30550 whole entry): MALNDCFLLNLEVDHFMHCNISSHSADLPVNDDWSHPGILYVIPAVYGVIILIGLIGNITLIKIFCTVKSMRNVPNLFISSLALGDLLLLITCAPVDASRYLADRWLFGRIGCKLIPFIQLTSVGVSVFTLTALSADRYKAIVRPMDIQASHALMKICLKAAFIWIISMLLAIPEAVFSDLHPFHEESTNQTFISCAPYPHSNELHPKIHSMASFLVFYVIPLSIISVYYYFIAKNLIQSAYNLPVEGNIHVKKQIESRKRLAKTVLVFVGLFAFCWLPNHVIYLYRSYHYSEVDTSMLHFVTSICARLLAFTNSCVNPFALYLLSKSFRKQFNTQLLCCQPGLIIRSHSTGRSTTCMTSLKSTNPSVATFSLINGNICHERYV

- NanoBRET Fold Response (CCR7; CCR7, 0.1μM): 1.03
- NanoBRET Fold Response (CCR7; CCR7, 1μM): 1.01
- NanoBRET Fold Response (GRPR; GRPR, 0.1μM): 1.01
- NanoBRET Fold Response (GRPR; GRPR, 1μM): 1.01
- NanoBRET Fold Response (SSTR5; SSTR5, 0.1μM): 1.09
- NanoBRET Fold Response (SSTR5; SSTR5, 1μM): 1.05
Structure (SMILES): CCOC(=O)c1cc(C#N)c(N2CCC(C(=O)NS(=O)(=O)Cc3ccccc3/C=C/C(=O)NCCNC(=O)CCc3ccc4n3[B-](F)(F)[N+]3=C(c5ccc[nH]5)C=CC3=C4)CC2)nc1C [AZD1283-1-NB590]

- NanoBRET Fold Response (CCR7; 0.1μM tracer): 0.88
- NanoBRET Fold Response (CCR7; 1μM tracer): 0.96
- NanoBRET Fold Response (GRPR; 0.1μM tracer): 1.00
- NanoBRET Fold Response (GRPR; 1μM tracer): 1.08
- NanoBRET Fold Response (SSTR5; 0.1μM tracer): 0.82
- NanoBRET Fold Response (SSTR5; 1μM tracer): 0.99
Structure (SMILES): COc1ccc2c(n1)c(CCNC(C)=O)cn2CCNC(=O)CCc1ccc2n1[B-](F)(F)[N+]1=C(c3ccc[nH]3)C=CC1=C2 [Azamelatonin-1-NB590]

- NanoBRET Fold Response (CCR7; CCR7, 0.1μM tracer): 1.01
- NanoBRET Fold Response (CCR7; CCR7, 1μM tracer): 0.99
- NanoBRET Fold Response (GRPR; GRPR, 0.1μM tracer): 1.11
- NanoBRET Fold Response (GRPR; GRPR, 1μM tracer): 1.37
- NanoBRET Fold Response (SSTR5; SSTR5, 0.1μM tracer): 0.97
- NanoBRET Fold Response (SSTR5; SSTR5, 1μM tracer): 1.00
Structure (SMILES): O=C(CCOCCOCCOCCOCCNC(=O)CCc1ccc2n1[B-](F)(F)[N+]1=C(c3ccc[nH]3)C=CC1=C2)NCCCN1CCN(C2=Nc3cc(Cl)ccc3Nc3ccccc32)CC1 [Clozapine-a-2-NB590]

More lines, now with the values behind:

Structure (SMILES): N#CN=C(NCCCOc1cccc(CN2CCCCC2)c1)NCCNC(=O)CCOCCOCCOCCOCCNC(=O)CCc1ccc2n1[B-](F)(F)[N+]1=C(c3ccc[nH]3)C=CC1=C2 [Aminopotentidine-2-NB590]
- NanoBRET Fold Response (CCR7; CCR7, tracer 0.1μM): 0.96
- NanoBRET Fold Response (CCR7; CCR7, tracer 1μM): 1.01
- NanoBRET Fold Response (GRPR; GRPR, tracer 0.1μM): 1.08
- NanoBRET Fold Response (GRPR; GRPR, tracer 1μM): 0.98
- NanoBRET Fold Response (SSTR5; SSTR5, tracer 0.1μM): 0.97
- NanoBRET Fold Response (SSTR5; SSTR5, tracer 1μM): 1.00

Structure (SMILES): CN(C)CCC=C1c2ccccc2CCc2ccc(C(=O)NCCNC(=O)CCOCCOCCOCCOCCNC(=O)CCc3ccc4n3[B-](F)(F)[N+]3=C(c5ccc[nH]5)C=CC3=C4)cc21 [Amitriptyline-a-2-NB590]
- NanoBRET Fold Response (CCR7; tracer at 0.1μM): 1.01
- NanoBRET Fold Response (CCR7; tracer at 1μM): 0.99
- NanoBRET Fold Response (GRPR; tracer at 0.1μM): 1.12
- NanoBRET Fold Response (GRPR; tracer at 1μM): 0.98
- NanoBRET Fold Response (SSTR5; tracer at 0.1μM): 1.00
- NanoBRET Fold Response (SSTR5; tracer at 1μM): 1.05

Structure (SMILES): CN(C)CCC=C1c2ccccc2CCc2ccc(C(=O)NCCNC(=O)CCOCCOCCOCCOCCNC(=O)CCc3ccc4n3[B-](F)(F)[N+]3=C(c5ccc[nH]5)C=CC3=C4)cc21 [Amitriptyline-b-2-NB590]
- NanoBRET Fold Response (CCR7; [1]): 1.00
- NanoBRET Fold Response (CCR7; [2]): 1.00
- NanoBRET Fold Response (GRPR; [1]): 1.05
- NanoBRET Fold Response (GRPR; [2]): 1.03
- NanoBRET Fold Response (SSTR5; [1]): 0.96
- NanoBRET Fold Response (SSTR5; tracer at 1μM): 0.97

Structure (SMILES): CN(CCC=C1c2ccccc2CCc2ccccc21)C(=O)CCOCCOCCOCCOCCNC(=O)CCc1ccc2n1[B-](F)(F)[N+]1=C(c3ccc[nH]3)C=CC1=C2 [Amitriptyline-e-2-NB590]
- NanoBRET Fold Response (CCR7; tracer at 1μM): 1.03

Structure (SMILES): COc1ccc2[nH]c(-c3ccc(CNC(=O)CCOCCOCCOCCOCCNC(=O)CCc4ccc5n4[B-](F)(F)[N+]4=C(c6ccc[nH]6)C=CC4=C5)cc3)c(CCNC(C)=O)c2n1 [AzomelatoninICO9-2-NB590]
- NanoBRET Fold Response (CCR7; 0.1μM tracer): 1.02
- NanoBRET Fold Response (CCR7; 1μM tracer): 0.98
- NanoBRET Fold Response (GRPR; 0.1μM tracer): 0.84
- NanoBRET Fold Response (GRPR; 1μM tracer): 1.22
- NanoBRET Fold Response (SSTR5; 0.1μM tracer): 1.01
- NanoBRET Fold Response (SSTR5; 1μM tracer): 1.01
